This is an account of results in ChEMBL document CHEMBL3785074, “Molecular modeling and snake venom phospholipase A2 inhibition by phenolic compounds: Structure-activity relationship” (Eur J Med Chem, 2016).

The nature of series [1]: Lipophilicity, log P of compound. The class given is physicochemical. The conditions noted are these: octanol/water; read-out: logP.
Series [2] can be described thus: Protective activity against Daboia russellii venom-induced mortality by measuring venom LD50 in Swiss albino mouse at 6 mmol, iv preincubated with venom for 1 hr followed by administration to mouse measured after 24 hrs (reference value: 2.28 ug). The class given is functional, Daboia russelii.
Series [3] in a line: Protective activity against Daboia russellii venom-induced mortality in Swiss albino mouse at 6 mmol, iv preincubated with venom for 1 hr followed by administration to mouse measured after 24 hrs relative to untreated control. The class given is functional, Daboia russelii.
Series [4] can be described thus: Protective activity against Naja kaouthia venom-induced mortality in Swiss albino mouse at 6 mmol, iv by measuring venom LD50 preincubated with venom for 1 hr followed by administration to mouse measured after 24 hrs (reference value: 2.82 ug). The class given is functional.
A short description of series [5]: Protective activity against Naja kaouthia venom-induced mortality in Swiss albino mouse at 6 mmol, iv preincubated with venom for 1 hr followed by administration to mouse measured after 24 hrs relative to untreated control. The class given is functional.
Series [6] is described as follows: Protective activity against Daboia russellii venom-induced hemorrhage in intradermally dosed Swiss albino mouse at 6 mmol assessed as hemorhagic lesion by measuring minimal […] dose preincubated with venom for 1 hr followed by administration to mouse measured after 24 hrs (reference value: 5 ug). The class given is functional, Daboia russelii.
Series [7] can be described thus: Protective activity against Daboia russellii venom-induced hemorrhage in intradermally dosed Swiss albino mouse at 6 mmol assessed as hemorhagic lesion preincubated with venom for 1 hr followed by administration to mouse measured after 24 hrs relative to untreated control. The class given is functional, Daboia russelii.
The nature of series [8]: Protective activity against Daboia russellii venom-induced mortality in Swiss albino mouse at 6 mmol, iv by measuring venom LD50 administered immediately after venom injection measured after 24 hrs (reference value: 2.28ug). The class given is functional, Daboia russelii.
Series [9] in a line: Protective activity against Daboia russellii venom-induced mortality in Swiss albino mouse at 6 mmol, iv administered immediately after venom injection measured after 24 hrs relative to untreated control. The class given is functional, Daboia russelii.
The nature of series [10]: Protective activity against Naja kaouthia venom-induced mortality in Swiss albino mouse at 6 mmol, iv by measuring venom LD50 administered immediately after venom injection measured after 24 hrs (reference value: 2.82 ug). The class given is functional.
A short description of series [11]: Protective activity against Naja kaouthia venom-induced mortality in Swiss albino mouse at 6 mmol, iv administered immediately after venom injection measured after 24 hrs relative to untreated control. The class given is functional.
Series [12] is described as follows: Protective activity against Daboia russellii venom-induced hemorrhage in Swiss albino mouse at 6 mmol, iv assessed as hemorhagic lesion by measuring […] administered immediately after venom injection measured after 24 hrs (Rvb =5 ug). The class given is functional, Daboia russelii.
The nature of series [13]: Protective activity against Daboia russellii venom-induced hemorrhage in Swiss albino mouse at 6 mmol, iv assessed as hemorhagic lesion administered immediately after venom injection measured after 24 hrs relative to untreated control. The class given is functional, Daboia russelii.

`COc1ccc(C(=O)O)c(O)c1` [4-METHOXYSALICYLIC ACID]: the logP in series [1] stood at 1.21. For the same molecule, the LD50 amounted to 22 µg in series [2], 9 µg in series [4], 150 µg in series [8] and 10 µg in [10]. Besides, the “fold change (FC)” value in series [3] is listed as 9.8; in [5], 3.2; in [7], 4; in [9], 3.75; in series [11], 2; in [13], 2. Moreover, the MHC in series [6] turned out to be 20 µg; in [12] it was 10 µg.
